Measured values: the NIST ThermoML archive (doi:10.1016/j.jct.2006.05.008)
± gives the expanded uncertainty stated by the source.

What was measured:
[1] = Adiabatic calorimetry
[2] = Molar enthalpy of transition or fusion; details: Adiabatic calorimetry

Triple point temperature ([1]; Crystal) [K]	Molar enthalpy of transition or fusion ([2]; Crystal) [kcal/mol]	Glass transition temperature ([1]; Glass) [°C]	Triple point temperature ([1]; Metastable crystal) [K]	Molar enthalpy of transition or fusion ([2]; Metastable crystal) [kcal/mol]	SMILES
351.35 ± 0.2	5.468 ± 0.0239				CCCCn1cc[n+](C)c1.[Br-] [1-butyl-3-methylimidazolium bromide]
349.91 ± 0.2	4.36 ± 0.0574				CCn1cc[n+](C)c1.[Br-] [1-ethyl-3-methylimidazolium bromide]
314.7 ± 0.5	3.23 ± 0.0478	-64 ± 3	310.4 ± 0.5	5.11 ± 0.0717	CCC[n+]1ccn(C)c1.[Br-] [1-methyl-3-propylimidazolium bromide]
